Source: publication doi:10.1101/2023.03.24.534094v2 (biorxiv, 2023)
Read-outs that look alike come from different tables or passages of the source. Values belong to the compound of their own block, whether it stands above or below them.

Tests used:
Assay in all cases: biochemical
AKT3 = AKT3 (Homo sapiens, UniProt Q9Y243)
CASK = target: T1, CASK (Homo sapiens, UniProt O14936)
T1 sequence (O14936 1-926): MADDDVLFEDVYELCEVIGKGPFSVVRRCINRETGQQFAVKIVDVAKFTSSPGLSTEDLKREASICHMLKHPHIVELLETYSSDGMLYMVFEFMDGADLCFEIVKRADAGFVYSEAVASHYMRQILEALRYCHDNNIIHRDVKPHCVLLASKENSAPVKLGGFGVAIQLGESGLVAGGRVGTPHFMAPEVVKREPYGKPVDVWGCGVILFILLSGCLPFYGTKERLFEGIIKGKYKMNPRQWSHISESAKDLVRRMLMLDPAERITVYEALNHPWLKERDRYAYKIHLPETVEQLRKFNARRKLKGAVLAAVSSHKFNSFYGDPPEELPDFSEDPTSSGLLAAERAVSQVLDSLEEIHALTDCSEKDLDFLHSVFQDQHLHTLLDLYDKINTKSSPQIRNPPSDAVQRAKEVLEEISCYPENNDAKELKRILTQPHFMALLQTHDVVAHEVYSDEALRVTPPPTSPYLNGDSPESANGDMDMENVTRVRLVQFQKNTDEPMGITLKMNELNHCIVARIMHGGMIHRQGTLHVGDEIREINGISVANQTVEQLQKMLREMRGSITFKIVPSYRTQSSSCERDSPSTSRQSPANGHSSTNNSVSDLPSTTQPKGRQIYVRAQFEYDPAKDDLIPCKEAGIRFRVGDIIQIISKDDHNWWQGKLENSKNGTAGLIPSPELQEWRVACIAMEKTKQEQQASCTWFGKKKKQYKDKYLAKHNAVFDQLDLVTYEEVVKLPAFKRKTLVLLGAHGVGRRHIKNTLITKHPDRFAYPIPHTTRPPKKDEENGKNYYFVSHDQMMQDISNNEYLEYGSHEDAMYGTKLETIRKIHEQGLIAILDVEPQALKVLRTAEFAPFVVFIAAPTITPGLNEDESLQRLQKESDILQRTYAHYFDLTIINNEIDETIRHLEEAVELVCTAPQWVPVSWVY

EpHA5 = EpHA5 (Homo sapiens, UniProt P54756)
Sequence of EpHA5 (P54756 whole entry): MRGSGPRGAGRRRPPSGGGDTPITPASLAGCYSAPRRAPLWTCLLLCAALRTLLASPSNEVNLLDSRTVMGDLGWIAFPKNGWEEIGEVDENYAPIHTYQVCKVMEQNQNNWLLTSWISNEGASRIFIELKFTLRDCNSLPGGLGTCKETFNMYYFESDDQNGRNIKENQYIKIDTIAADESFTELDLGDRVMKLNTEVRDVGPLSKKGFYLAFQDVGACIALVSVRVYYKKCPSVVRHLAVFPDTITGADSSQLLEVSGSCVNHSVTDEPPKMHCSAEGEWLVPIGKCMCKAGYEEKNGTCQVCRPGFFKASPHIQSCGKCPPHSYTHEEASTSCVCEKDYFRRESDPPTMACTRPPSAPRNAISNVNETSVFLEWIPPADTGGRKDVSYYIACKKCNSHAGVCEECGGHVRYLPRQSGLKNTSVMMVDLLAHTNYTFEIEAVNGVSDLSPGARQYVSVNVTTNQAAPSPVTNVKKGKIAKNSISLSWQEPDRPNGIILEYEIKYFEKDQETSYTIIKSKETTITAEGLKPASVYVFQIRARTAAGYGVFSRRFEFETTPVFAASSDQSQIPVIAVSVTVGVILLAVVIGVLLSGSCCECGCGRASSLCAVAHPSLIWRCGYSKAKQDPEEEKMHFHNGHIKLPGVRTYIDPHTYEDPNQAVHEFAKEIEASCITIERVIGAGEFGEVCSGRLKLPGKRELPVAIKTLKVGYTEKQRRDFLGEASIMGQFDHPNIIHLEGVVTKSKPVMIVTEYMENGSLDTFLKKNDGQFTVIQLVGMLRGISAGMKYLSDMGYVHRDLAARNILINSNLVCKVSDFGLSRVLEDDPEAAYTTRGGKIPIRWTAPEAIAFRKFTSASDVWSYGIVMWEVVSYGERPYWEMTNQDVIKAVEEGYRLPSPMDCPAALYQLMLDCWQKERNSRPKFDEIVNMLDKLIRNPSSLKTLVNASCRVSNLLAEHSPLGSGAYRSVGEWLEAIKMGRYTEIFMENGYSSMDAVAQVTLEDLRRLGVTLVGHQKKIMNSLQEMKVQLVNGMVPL

FGFR1 = FGFR1 (Homo sapiens, UniProt P11362)
Sequence of FGFR1 (P11362 whole entry): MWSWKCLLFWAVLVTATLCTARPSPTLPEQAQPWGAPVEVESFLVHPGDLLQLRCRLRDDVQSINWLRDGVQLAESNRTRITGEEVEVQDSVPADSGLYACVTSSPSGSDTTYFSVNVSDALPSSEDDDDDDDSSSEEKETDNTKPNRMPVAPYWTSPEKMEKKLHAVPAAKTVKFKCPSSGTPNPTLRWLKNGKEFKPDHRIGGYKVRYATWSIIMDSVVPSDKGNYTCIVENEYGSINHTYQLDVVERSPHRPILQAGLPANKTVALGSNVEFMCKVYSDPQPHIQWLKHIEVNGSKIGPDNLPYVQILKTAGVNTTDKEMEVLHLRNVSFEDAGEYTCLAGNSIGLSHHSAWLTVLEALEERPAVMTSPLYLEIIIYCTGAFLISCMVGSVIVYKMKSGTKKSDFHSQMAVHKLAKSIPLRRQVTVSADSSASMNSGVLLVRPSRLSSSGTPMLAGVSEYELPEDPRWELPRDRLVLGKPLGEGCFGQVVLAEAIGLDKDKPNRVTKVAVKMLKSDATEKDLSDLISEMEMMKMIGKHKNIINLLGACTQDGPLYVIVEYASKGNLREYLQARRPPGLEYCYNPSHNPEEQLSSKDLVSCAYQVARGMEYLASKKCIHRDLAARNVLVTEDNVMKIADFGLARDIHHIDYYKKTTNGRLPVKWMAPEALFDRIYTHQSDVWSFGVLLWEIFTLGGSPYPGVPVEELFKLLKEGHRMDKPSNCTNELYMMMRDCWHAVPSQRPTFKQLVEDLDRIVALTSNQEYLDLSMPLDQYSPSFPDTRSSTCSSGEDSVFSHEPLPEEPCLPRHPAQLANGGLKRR

LOK = LOK (Homo sapiens, UniProt O94804)
Sequence of LOK (O94804 whole entry): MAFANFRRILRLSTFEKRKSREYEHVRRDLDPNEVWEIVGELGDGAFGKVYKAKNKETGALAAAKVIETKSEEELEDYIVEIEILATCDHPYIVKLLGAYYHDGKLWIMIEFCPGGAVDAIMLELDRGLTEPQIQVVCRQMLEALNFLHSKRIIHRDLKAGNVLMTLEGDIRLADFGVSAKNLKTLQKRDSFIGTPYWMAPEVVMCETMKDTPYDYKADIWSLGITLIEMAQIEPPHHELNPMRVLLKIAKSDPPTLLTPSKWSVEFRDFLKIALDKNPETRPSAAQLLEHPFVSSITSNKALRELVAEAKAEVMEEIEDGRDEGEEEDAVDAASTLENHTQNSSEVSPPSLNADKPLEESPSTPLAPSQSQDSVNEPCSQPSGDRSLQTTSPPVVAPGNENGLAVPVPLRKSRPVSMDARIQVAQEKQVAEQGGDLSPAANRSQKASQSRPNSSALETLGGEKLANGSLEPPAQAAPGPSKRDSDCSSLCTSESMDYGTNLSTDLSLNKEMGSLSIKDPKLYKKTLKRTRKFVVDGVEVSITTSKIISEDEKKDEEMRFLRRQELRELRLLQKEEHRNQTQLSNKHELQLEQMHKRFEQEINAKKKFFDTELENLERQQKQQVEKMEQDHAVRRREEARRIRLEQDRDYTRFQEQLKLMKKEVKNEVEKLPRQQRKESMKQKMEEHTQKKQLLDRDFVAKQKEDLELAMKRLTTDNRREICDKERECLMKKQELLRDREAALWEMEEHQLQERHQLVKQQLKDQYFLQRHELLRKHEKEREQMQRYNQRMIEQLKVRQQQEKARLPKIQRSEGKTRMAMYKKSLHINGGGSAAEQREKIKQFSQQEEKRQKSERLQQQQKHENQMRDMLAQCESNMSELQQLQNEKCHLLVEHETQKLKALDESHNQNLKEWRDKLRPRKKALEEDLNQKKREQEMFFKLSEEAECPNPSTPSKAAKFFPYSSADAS

MAP2K6 = target: T2, MAP2K6 (Homo sapiens, UniProt P52564)
T2 sequence (P52564 1-334): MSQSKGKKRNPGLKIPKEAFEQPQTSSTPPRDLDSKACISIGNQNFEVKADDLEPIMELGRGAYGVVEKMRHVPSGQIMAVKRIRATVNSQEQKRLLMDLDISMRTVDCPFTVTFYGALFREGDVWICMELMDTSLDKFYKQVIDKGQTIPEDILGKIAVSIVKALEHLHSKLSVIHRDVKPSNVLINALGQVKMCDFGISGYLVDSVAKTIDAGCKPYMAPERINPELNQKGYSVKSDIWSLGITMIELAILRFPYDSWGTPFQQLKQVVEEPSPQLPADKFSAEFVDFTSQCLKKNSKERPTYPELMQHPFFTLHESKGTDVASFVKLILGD

MER = target: T3, MER (Homo sapiens, UniProt Q12866)
T3 sequence (Q12866 1-999): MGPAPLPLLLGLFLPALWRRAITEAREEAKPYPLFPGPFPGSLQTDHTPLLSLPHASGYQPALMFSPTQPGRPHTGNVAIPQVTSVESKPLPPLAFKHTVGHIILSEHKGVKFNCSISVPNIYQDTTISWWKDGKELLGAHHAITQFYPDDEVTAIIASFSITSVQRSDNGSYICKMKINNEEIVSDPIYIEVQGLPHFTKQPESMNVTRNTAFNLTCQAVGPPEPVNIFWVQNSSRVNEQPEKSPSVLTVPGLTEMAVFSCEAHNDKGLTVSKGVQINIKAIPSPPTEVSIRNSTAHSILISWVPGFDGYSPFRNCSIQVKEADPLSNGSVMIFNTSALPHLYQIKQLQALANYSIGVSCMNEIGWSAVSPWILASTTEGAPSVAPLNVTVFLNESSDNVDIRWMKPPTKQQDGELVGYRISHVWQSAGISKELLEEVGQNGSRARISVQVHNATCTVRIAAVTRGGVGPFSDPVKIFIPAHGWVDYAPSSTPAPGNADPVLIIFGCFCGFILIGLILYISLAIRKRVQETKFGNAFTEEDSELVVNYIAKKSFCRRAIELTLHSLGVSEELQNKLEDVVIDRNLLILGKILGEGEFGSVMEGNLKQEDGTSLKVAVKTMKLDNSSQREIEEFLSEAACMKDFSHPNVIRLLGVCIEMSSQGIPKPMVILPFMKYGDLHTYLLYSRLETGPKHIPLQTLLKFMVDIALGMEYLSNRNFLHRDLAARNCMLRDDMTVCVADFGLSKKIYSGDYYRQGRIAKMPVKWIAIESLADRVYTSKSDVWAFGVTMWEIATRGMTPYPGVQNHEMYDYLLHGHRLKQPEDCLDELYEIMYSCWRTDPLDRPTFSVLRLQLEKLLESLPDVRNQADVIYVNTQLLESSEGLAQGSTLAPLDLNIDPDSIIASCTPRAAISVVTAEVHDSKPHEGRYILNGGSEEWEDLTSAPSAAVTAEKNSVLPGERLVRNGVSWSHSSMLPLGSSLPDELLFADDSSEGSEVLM

Sequence of AKT3 (Q9Y243 whole entry): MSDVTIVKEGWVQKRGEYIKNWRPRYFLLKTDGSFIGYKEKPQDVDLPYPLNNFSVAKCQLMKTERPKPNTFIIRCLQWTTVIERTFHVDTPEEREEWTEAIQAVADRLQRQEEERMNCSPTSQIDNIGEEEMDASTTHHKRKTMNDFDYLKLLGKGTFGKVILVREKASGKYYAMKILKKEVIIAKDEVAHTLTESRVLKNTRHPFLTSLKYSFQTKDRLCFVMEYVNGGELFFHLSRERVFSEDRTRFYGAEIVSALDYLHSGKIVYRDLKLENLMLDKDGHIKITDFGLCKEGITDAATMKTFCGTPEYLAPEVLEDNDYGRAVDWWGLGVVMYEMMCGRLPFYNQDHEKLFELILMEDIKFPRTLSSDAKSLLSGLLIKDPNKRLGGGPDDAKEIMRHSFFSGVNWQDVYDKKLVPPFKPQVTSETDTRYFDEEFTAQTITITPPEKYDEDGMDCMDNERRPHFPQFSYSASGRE

Compound: CNc1ncc2cc(-c3cc(C(F)(F)F)ccc3Cl)c(=O)n(CCCCN)c2n1 [compound 9, 8-(4-Aminobutyl)-6-(2-chloro-5-(trifluoromethyl)phenyl)-2-(methylamino)pyrido[2,3-d]pyrimidin-7(8H)-one]
ΔTm at 10 µM (AKT3; read-out: dTm 9): 0 °C
ΔTm at 10 µM (CASK; read-out: dTm 9): -0.1 °C
ΔTm at 10 µM (EpHA5; read-out: dTm 9): 2.6 °C
ΔTm at 10 µM (FGFR1; read-out: dTm 9): 1.2 °C
ΔTm at 10 µM (LOK; read-out: dTm 9): 1.6 °C
ΔTm at 10 µM (MAP2K6; read-out: dTm 9): 0.8 °C
ΔTm at 10 µM (MER; read-out: dTm 9): 0.2 °C

Compound: CNc1ncc2cc(-c3cc(Cl)ccc3Br)c(=O)n(CCCCN)c2n1 [compound 10, 8-(4-Aminobutyl)-6-(2-bromo-5-chlorophenyl)-2-(methylamino)pyrido[2,3-d]pyrimidin-7(8H)-one]
ΔTm at 10 µM (AKT3; read-out: dTm 10): -0.1 °C
ΔTm at 10 µM (CASK; read-out: dTm 10): 0 °C
ΔTm at 10 µM (EpHA5; read-out: dTm 10): 5.5 °C
ΔTm at 10 µM (FGFR1; read-out: dTm 10): 2.9 °C
ΔTm at 10 µM (LOK; read-out: dTm 10): 3.5 °C
ΔTm at 10 µM (MAP2K6; read-out: dTm 10): 1.5 °C
ΔTm at 10 µM (MER; read-out: dTm 10): 0.7 °C

Compound: CNc1ncc2cc(-c3cc(Cl)ccc3Cl)c(=O)n(CCCCN)c2n1 [compound 8, 8-(4-Aminobutyl)-6-(2,5-dichlorophenyl)-2-(methylamino)pyrido[2,3-d]pyrimidin-7(8H)-one]
ΔTm at 10 µM (AKT3; read-out: dTm 8): 0 °C
ΔTm at 10 µM (CASK; read-out: dTm 8): -0.2 °C
ΔTm at 10 µM (EpHA5; read-out: dTm 8): 5.4 °C
ΔTm at 10 µM (FGFR1; read-out: dTm 8): 3.3 °C
ΔTm at 10 µM (LOK; read-out: dTm 8): 2.5 °C
ΔTm at 10 µM (MAP2K6; read-out: dTm 8): 1.3 °C
ΔTm at 10 µM (MER; read-out: dTm 8): 0.5 °C

Other lines, results leading:

ΔTm at 10 µM (AKT3; read-out: dTm 12): 1.2 °C
ΔTm at 10 µM (CASK; read-out: dTm 12): -0.2 °C
ΔTm at 10 µM (EpHA5; read-out: dTm 12): 3.2 °C
ΔTm at 10 µM (FGFR1; read-out: dTm 12): 0.6 °C
ΔTm at 10 µM (LOK; read-out: dTm 12): -0.4 °C
ΔTm at 10 µM (MAP2K6; read-out: dTm 12): 3.8 °C
ΔTm at 10 µM (MER; read-out: dTm 12): 1.1 °C
Compound: CNc1ncc2cc(-c3cc(F)c(-c4cccc(C)n4)cc3F)c(=O)n(CCCCN)c2n1 [compound 12, 8-(4-Aminobutyl)-6-(2,5-difluoro-4-(6-methylpyridin-2-yl)phenyl)-2-(methylamino)pyrido[2,3-d]pyrimidin-7(8H)-one]

ΔTm at 10 µM (AKT3; read-out: dTm 11): -0.1 °C
ΔTm at 10 µM (CASK; read-out: dTm 11): -0.3 °C
ΔTm at 10 µM (EpHA5; read-out: dTm 11): 4.7 °C
ΔTm at 10 µM (FGFR1; read-out: dTm 11): 3 °C
ΔTm at 10 µM (LOK; read-out: dTm 11): 3.6 °C
ΔTm at 10 µM (MAP2K6; read-out: dTm 11): 1.6 °C
ΔTm at 10 µM (MER; read-out: dTm 11): 0.6 °C
Compound: CNc1ncc2cc(-c3cc(Br)ccc3Br)c(=O)n(CCCCN)c2n1 [compound 11, 8-(4-Aminobutyl)-6-(2,5-dibromophenyl)-2-(methylamino)pyrido[2,3-d]pyrimidin-7(8H)-one]
